These are literature values, as cited in patent US20040235792A1, “Serine protease inhibitors compromising a hydrogen-bond acceptor” (priority 2001, published 2004).

Where a SMILES comes first, the peptide text is derived from it. [ ]: non-standard residue; d: D form. dPip = O=C(O)[C@H]1CCCCN1

One data set concerns the target thrombin (Homo sapiens, UniProt P00734). The following applies: cited from earlier work; for KassThr/KassThy: selectivity ratio.
A further data set addresses protein Ca (Homo sapiens, UniProt P04070). The conditions noted are these: read-out: IC50 (protein Ca system); cited from earlier work.
The conditions of data set [1]: cited from earlier work.

Chain of protein Ca (P04070 212-461 limits assumed): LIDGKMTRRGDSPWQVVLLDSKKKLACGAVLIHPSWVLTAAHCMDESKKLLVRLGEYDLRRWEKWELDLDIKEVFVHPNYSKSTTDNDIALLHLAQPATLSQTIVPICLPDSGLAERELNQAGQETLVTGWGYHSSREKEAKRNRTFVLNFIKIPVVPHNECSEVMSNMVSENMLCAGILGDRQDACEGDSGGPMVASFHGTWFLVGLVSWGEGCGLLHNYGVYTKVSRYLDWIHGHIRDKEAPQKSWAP
Chain of protein Ca (P04070 43-197 partner limits assumed): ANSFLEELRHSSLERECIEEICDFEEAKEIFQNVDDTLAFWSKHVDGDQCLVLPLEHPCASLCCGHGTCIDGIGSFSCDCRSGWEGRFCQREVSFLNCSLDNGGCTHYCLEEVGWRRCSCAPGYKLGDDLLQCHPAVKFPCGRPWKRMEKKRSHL

`CC(C)N(CC(=O)N[C@H](C=O)CCCNC(=N)N)C(=O)[C@H]1CCCCN1` [D-hPro-(Nα-isopropyl)Gly-Arg-H]: on thrombin, the KassThr/KassThy was 20. For the molecule `N=C(N)NCCC[C@@H](C=O)NC(=O)[C@@H]1CCCN1C(=O)[C@H]1CCCCN1` [D-hPro-Pro-Arg-H] (H-[dPip]-Pro-Arg-aldehyde), at thrombin, the KassThr is 2e+06 L/mol.

What is called IC50 is the concentration needed to halve the response being measured. For the molecule `CC(=O)NC(Cc1ccccc1)C(=O)N1CCCC1C(=O)NC(CCCNC(=N)N)B(O)O` [DuP 714, Ac-D-Phe-Pro-boro Arg-OH], at protein Ca, the IC50 is 750 nM.

Consider `CN[C@H](Cc1ccccc1)C(=O)N1CCC[C@H]1C(=O)N[C@H](C=O)CCCN=C(N)N` [LY294468, H-D-MePhe-Pro-Arginal], for which, on thrombin, the KassThr is 5.4e+06 L/mol and the KassThr/KassThy is 5.1. In general, pKa refers to the pH at which an ionisable group is half protonated. Take `c1ccc2ncccc2c1` [quinoline]: in data set [1], the pKa was 4.0.
